Values of other authors in patent US11278622B2, “Ceftolozane antibiotic compositions” (Merck Sharp & Dohme Corp., priority 2013, dated 2022).

System: P. aeruginosa

Cn1c(N)c(NC(=O)NCCN)c[n+]1CC1=C(C(=O)O)N2C(=O)[C@@H](NC(=O)/C(=N\OC(C)(C)C(=O)O)c3nsc(N)n3)[C@H]2SC1 [ceftolozane, (6R,7R)-3-[(5-amino-4-{[(2-aminoethyl)carbamoyl]amino}-1-methyl-1H-pyrazol-2-ium-2-yl)methyl]-7-({(2Z)-2-(5-amino-1,2,4-thiadiazol-3-yl)-2-[(1-carboxy-1-methylethoxy)imino]acetyl}amino)-8-oxo-5-thia-1-azabicyclo[4.2.0]oct-2-ene-2-carboxylate]
MIC90: ≤ 2 µg/mL
